Measured values published in PMC9120487, “Cryo-EM structures define ubiquinone-10 binding to mitochondrial complex I and conformational transitions accompanying Q-site occupancy” (Nature Communications, 2022).

Key:
[1] = target: T1, bovine mitochondrial complex I (CxI-ND) (Bos taurus, UniProt P03887+P03898+P17694+P42026); assay: NADH:dQ oxidoreductase activity, […]-380 nm; type: biochemical; settings: DDM-solubilised enzyme; 200 µM dQ, 200 µM NADH, 0.15% asolectin/CHAPS; pH 7.5, 32 °C; piericidin-sensitive rate
T1 construct: gene NDUFS2; native 45-subunit complex (14 core, 31 supernumerary); NDUFS2 residue 129 modelled as Arg, NDUFA10 residue 255 as Lys; human subunit nomenclature; with NADH dehydrogenase [ubiquinone] flavoprotein 1, mitochondrial; NADH dehydrogenase [ubiquinone] flavoprotein 2, mitochondrial; NADH-ubiquinone oxidoreductase 75 kDa subunit, mitochondrial; NADH dehydrogenase [ubiquinone] iron-sulfur protein 3, mitochondrial; NADH dehydrogenase [ubiquinone] iron-sulfur protein 8, mitochondrial; NADH-ubiquinone oxidoreductase chain 2; NADH-ubiquinone oxidoreductase chain 3; NADH-ubiquinone oxidoreductase chain 4; NADH-ubiquinone oxidoreductase chain 4L; NADH-ubiquinone oxidoreductase chain 5; NADH-ubiquinone oxidoreductase chain 6

[2] = target: T1, bovine mitochondrial complex I (CxI-ND); assay: cryo-EM structure, […] Å; settings: oxidised resting enzyme in nanodiscs, active state; Q-binding channel between NDUFS2, NDUFS7 and ND1; pH 7.5

| SMILES | NADH:dQ oxidoreductase activity, 340-380 nm [1] | cryo-EM structure, 2.84 Å [2] |
| --- | --- | --- |
| CCCCCCCCCCC1=C(C)C(=O)C(OC)=C(OC)C1=O [dQ, decylubiquinone] | piericidin-sensitive NADH:dQ oxidoreductase activity of the DDM-solubilised enzyme before reconstitution | – |
| COC1=C(OC)C(=O)C(C/C=C(\C)CC/C=C(\C)CC/C=C(\C)CC/C=C(\C)CC/C=C(\C)CC/C=C(\C)CC/C=C(\C)CC/C=C(\C)CC/C=C(\C)CCC=C(C)C)=C(C)C1=O [Q10, ubiquinone-10] | – | In active-Q10, the Q10 density occupies the entirety of the channel |
